Test systems include CCRF-CEM leukemia; HT29 colon; A549 NSCLC; RPMI-8226 leukemia; OVCAR-3 ovarian; SNB-19 CNS; OVCAR-8 ovarian; SW-620 colon; M14 melanoma; HOP-62 NSCLC.
Common to all, as to test: DTP human tumour cell line panel, 48 h

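Dose response: 5 concentrations. Exposure: 48 h. Format: 96-well plates. Endpoint: linear interpolation; highest concentration if not reached. GI50 is the concentration that inhibits growth by half. TGI denotes the concentration required for complete inhibition of growth.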

As for `COc1cc(C2C3=C(COC3=O)Nc3c2ccc2c3CCCC2)cc2c1OCO2` (stereo unspecified), the GI50 (in general, the concentration giving 50% growth inhibition) in the experiment on CCRF-CEM leukemia was 0.0367 µM; with HT29 colon it was 0.0357 µM; in the experiment on A549 NSCLC it was 0.0444 µM; in the experiment with RPMI-8226 leukemia, 0.0479 µM; with OVCAR-3 ovarian, 0.0233 µM; in the experiment on SNB-19 CNS, 0.0531 µM. Also, the GI50 was 0.045 µM in the experiment on OVCAR-8 ovarian, 0.0399 µM with SW-620 colon, 0.033 µM with M14 melanoma and 0.0426 µM in the experiment with HOP-62 NSCLC. Also, the TGI (in general, the concentration at which net growth stops) was > 100 µM with CCRF-CEM leukemia; 3.97 µM in the experiment on HT29 colon; > 89.3 µM in the experiment on A549 NSCLC; 75.3 µM in the experiment on RPMI-8226 leukemia; 0.0518 µM in the experiment with OVCAR-3 ovarian; > 77.4 µM in the experiment with SNB-19 CNS. Besides, the TGI was 20.2 µM with OVCAR-8 ovarian, > 100 µM in the experiment with SW-620 colon, 67.4 µM in the experiment on M14 melanoma and 18.7 µM in the experiment on HOP-62 NSCLC.
In the case of `COC(=O)N/N=C(/CCC(=O)Nc1ccc(C)c(C)c1)CC(=O)C(C)(C)C`, the TGI with CCRF-CEM leukemia, in the experiment with HT29 colon, in the experiment with A549 NSCLC, in the experiment with RPMI-8226 leukemia, with OVCAR-3 ovarian and with SNB-19 CNS was > 100 µM each time. For the same compound, the TGI in the experiment with OVCAR-8 ovarian, with SW-620 colon, in the experiment on M14 melanoma and in the experiment on HOP-62 NSCLC was > 100 µM in each case.
Turning to `O=C(CC1(O)C(=O)Nc2ccccc21)c1ccc(O)cc1` (stereo unspecified), the TGI in the experiment on CCRF-CEM leukemia, in the experiment on HT29 colon, in the experiment on A549 NSCLC, in the experiment on RPMI-8226 leukemia, in the experiment with OVCAR-3 ovarian and in the experiment with SNB-19 CNS was > 100 µM each time. Besides, the TGI with SW-620 colon, with M14 melanoma and with HOP-62 NSCLC was > 100 µM in each case.
Consider `Cc1ccc(-c2cc(=O)c3cc(C)c(C)c(C(=O)O)c3o2)cc1N`, for which the TGI with CCRF-CEM leukemia, with HT29 colon, in the experiment with A549 NSCLC, in the experiment with RPMI-8226 leukemia, with OVCAR-3 ovarian and with SNB-19 CNS was > 100 µM in each case. The TGI with OVCAR-8 ovarian, with SW-620 colon and in the experiment on M14 melanoma was > 100 µM throughout.
`CCN(CC)C(=O)N1CCN(C=S)CC1`: the TGI in the experiment on CCRF-CEM leukemia, in the experiment on HT29 colon, in the experiment on A549 NSCLC, with OVCAR-3 ovarian, in the experiment with SNB-19 CNS and with OVCAR-8 ovarian was > 100 µM each time. Moreover, the TGI in the experiment with SW-620 colon, with M14 melanoma and in the experiment on HOP-62 NSCLC was > 100 µM throughout.
On to `Clc1ccc2nc(-c3ccccc3)nc(Cl)c2c1`, for which the TGI in the experiment with CCRF-CEM leukemia, with HT29 colon, with A549 NSCLC, in the experiment with RPMI-8226 leukemia, with OVCAR-3 ovarian and in the experiment on SNB-19 CNS was > 100 µM throughout. Besides, the total growth inhibition concentration (TGI) is > 100 µM in the experiment with OVCAR-8 ovarian, > 100 µM in the experiment with SW-620 colon and 79.9 µM in the experiment with HOP-62 NSCLC.
With `COC1C(OC(=O)/C=C/C=C/C=C/C=C\C(=O)O)CCC2(CO2)C1C1(C)OC1CC=C(C)C` (stereo unspecified), the GI50 in the experiment with CCRF-CEM leukemia, in the experiment with HT29 colon, in the experiment with RPMI-8226 leukemia, with OVCAR-3 ovarian, with SNB-19 CNS and in the experiment with SW-620 colon was > 200 µM in each case. In addition, the GI50 with M14 melanoma and in the experiment on HOP-62 NSCLC was > 200 µM throughout. Besides, the TGI with CCRF-CEM leukemia, with HT29 colon, in the experiment on RPMI-8226 leukemia, in the experiment with OVCAR-3 ovarian, with SNB-19 CNS and with SW-620 colon was > 200 µM throughout. Moreover, the TGI with M14 melanoma and in the experiment on HOP-62 NSCLC was > 200 µM each time.
With `C=C1C2CC(OC(C)=O)C3(C)C(c4ccoc4)OC(=O)[C@@H](O)[C@]13OC1C[C@H](OC(C)=O)C(C)(C)[C@H](CC(=O)OC)[C@]12C` (stereo partly specified), the TGI in the experiment with CCRF-CEM leukemia, in the experiment with HT29 colon, with A549 NSCLC, with RPMI-8226 leukemia, in the experiment with OVCAR-3 ovarian and with SNB-19 CNS was > 100 µM in each case. For the same compound, the TGI with OVCAR-8 ovarian, in the experiment on SW-620 colon and with M14 melanoma was > 100 µM in each case.
`CCCCN(CCCC)CCC(O)c1cc2c(Cl)cc(Cl)cc2c2cc(C(F)(F)F)ccc12` (stereo unspecified): the TGI with CCRF-CEM leukemia was 29 µM; with HT29 colon, 34.9 µM; with RPMI-8226 leukemia, 28.4 µM; with OVCAR-3 ovarian, 23.7 µM; in the experiment with SNB-19 CNS, 40.6 µM; in the experiment on OVCAR-8 ovarian, 27.5 µM. Besides, the TGI in the experiment with SW-620 colon came out at 25.7 µM; in the experiment with M14 melanoma, 23.6 µM; in the experiment with HOP-62 NSCLC, 21.9 µM.
Take `O=C(Nc1cc(Cl)cc(Cl)c1)/C(Cc1nc2ccccc2[nH]c1=O)=N/NC(=O)c1ccncc1`: the TGI in the experiment with CCRF-CEM leukemia, with A549 NSCLC, with RPMI-8226 leukemia, in the experiment on OVCAR-3 ovarian, in the experiment with SNB-19 CNS and in the experiment with OVCAR-8 ovarian was > 100 µM in each case. The TGI in the experiment on SW-620 colon, in the experiment on M14 melanoma and in the experiment with HOP-62 NSCLC was > 100 µM throughout.
Regarding `CCOC(=N)CC(=O)Nc1cccc(Cl)c1`, the TGI in the experiment with CCRF-CEM leukemia, in the experiment with HT29 colon, with A549 NSCLC, with OVCAR-3 ovarian, in the experiment with SNB-19 CNS and in the experiment on OVCAR-8 ovarian was > 100 µM each time. Also, the TGI in the experiment on SW-620 colon, in the experiment on M14 melanoma and in the experiment on HOP-62 NSCLC was > 100 µM throughout.
Regarding `COc1cccc2c1C(=O)c1c(O)c3c(c(O)c1C2=O)C[C@@](O)(C(=O)CO)CC3OC1CC(O)C(O)C(C)O1` (stereo partly specified), the TGI with CCRF-CEM leukemia is > 35.4 µM; with HT29 colon, 4.25 µM; in the experiment on A549 NSCLC, 3.99 µM; in the experiment with OVCAR-3 ovarian, 11.3 µM; in the experiment with SNB-19 CNS, 2.93 µM; in the experiment with OVCAR-8 ovarian, 9.78 µM. For the same compound, the TGI worked out at 17.3 µM in the experiment on SW-620 colon, 1.88 µM with M14 melanoma and 0.217 µM in the experiment with HOP-62 NSCLC.
In the case of `COc1cc2c(cc1OC)NC(=O)NC(Cc1ccc3c(c1)OCO3)CC2` (stereo unspecified), the TGI in the experiment on CCRF-CEM leukemia, in the experiment with A549 NSCLC, in the experiment with RPMI-8226 leukemia, with OVCAR-3 ovarian, in the experiment with SNB-19 CNS and in the experiment on OVCAR-8 ovarian was > 100 µM throughout. Moreover, the TGI in the experiment with SW-620 colon, in the experiment on M14 melanoma and in the experiment on HOP-62 NSCLC was > 100 µM throughout.

(Values after PubChem BioAssay (NCI).)
